# Measured values reported in patent US8088729B2 (priority 2005, dated 2012).
# pEC50: −log10 of the molar value. Values joined by “and” are separate entries in the source; they are usually repeats but may differ in a detail not shown here. Equal values may be shown once. Read-outs that look alike come from different tables or passages of the source.
# Tests used:
# [1] = tested on: MDCK cells; assay: cells; type: cell-based, canine
# [2] = tested on: MDCK cells; assay: cells; type: cell-based, canine; remark: listed apart in the source
# [3] = biological target: soluble gp120 (sgp120) (Human immunodeficiency virus type 1 group M subtype B, UniProt P03375)
# [4] = tested on: MDCK cell line
# [5] = tested on: fusion of CD4 β-gal cells with HL 2/3 cells; type: cell-based
# [6] = tested on: HIV; type: cell-based
# Description: Potent cytoprotective and anti-replicative activities of both natural and His-tagged recombinant Griffithsin were observed using the HIV-1RF strain of HIB in CEM-SS cells. […] In contrast, infectivity of cell-free virus was abolished after pretreatment and removal of Griffithsin.
# [7] = tested on: Washington/05/96 (H3N2); type: cell-based, influenza A
# [8] = tested on: Shandong/09/93 (H3N2); type: cell-based, influenza A
# [9] = tested on: Beijing/262/95 (H1N1); type: cell-based, influenza A
# [10] = tested on: SARS virus
# [11] = tested on: HIV-1 RF; type: cell-based
# [12] = tested on: HIV-1 ADA; type: cell-based; details: HIV primary isolate ADA; macrophage; M-tropic; p24 ELISA; mean value
# [13] = tested on: HCV RNA replicon; type: cell-based, Hepatitis C virus; details: for Inhibition of Viral Activity (% reduction Luc): 20 µM
# [14] = biological target: gp120 (Human immunodeficiency virus type 1 group M subtype B, UniProt P03378); type: binding, HIV-1; details: glycosylated and nonglycosylated HIV-1SF2 gp120, serial dilutions; FIG. 5b
# Sequence of gp120 (Human immunodeficiency virus type 1 group M subtype B, UniProt P03378) (P03378 32-509 limits assumed): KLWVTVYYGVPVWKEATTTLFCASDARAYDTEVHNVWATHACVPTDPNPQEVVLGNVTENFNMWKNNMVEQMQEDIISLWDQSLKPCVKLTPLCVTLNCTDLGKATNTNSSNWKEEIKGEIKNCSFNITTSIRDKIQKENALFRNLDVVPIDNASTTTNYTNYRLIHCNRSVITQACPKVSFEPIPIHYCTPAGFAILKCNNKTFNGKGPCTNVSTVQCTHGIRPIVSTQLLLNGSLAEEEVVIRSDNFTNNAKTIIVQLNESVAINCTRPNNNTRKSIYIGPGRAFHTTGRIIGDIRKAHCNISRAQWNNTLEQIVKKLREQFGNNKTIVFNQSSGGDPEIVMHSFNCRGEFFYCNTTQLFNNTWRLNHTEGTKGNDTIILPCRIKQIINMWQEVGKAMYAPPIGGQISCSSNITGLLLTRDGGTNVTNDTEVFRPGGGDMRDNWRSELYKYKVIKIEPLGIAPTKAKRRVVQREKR
# [15] = tested on: gp120; type: binding, HIV-1; details: 100 ng protein standard, Griffithsin 100 ng/well; FIG. 5a
# [16] = tested on: HIV-1 ROJO; type: cell-based; details: HIV primary isolate ROJO; PBMC; T-tropic; supernatant RT activity; mean value
# [17] = tested on: HIV-1IIIB; type: cell-based; details: concentration-dependent manner
# [18] = tested on: Panama/2007/99 (H3N2); type: cell-based, influenza A
# [19] = tested on: HIV-1 Ba-L; type: cell-based; details: HIV primary isolate Ba-L; macrophage; M-tropic; p24 ELISA; mean value
# [20] = tested on: cell-cell fusion of uninfected and chronically infected CEM-SS; type: cell-based
# [21] = tested on: Huh7 ET cell line; details: for Cytotoxicity (% reduction in rRNA)*: single high-test concentration, compared to control cell
# [22] = tested on: CEM-SS cells; design: direct cytotoxicity to the host cells: dose or concentration left out as unconfirmed
# [23] = tested on: Sydney/5/97 (H3N2); type: cell-based, influenza A
# [24] = tested on: Vero76 cells; type: cell-based
# [25] = biological target: sCD4 (Homo sapiens, UniProt P01730); type: binding
# [26] = tested on: Zaire ebola virus; type: cell-based
# [27] = tested on: Vero76 cells; type: cell-based; remark: listed apart in the source
# [28] = tested on: SARS virus; type: cell-based
# [29] = tested on: T-lymphocytes (CEM-SS), PBMCs, macrophages; details: concentrations 1000-fold higher than the EC50 values
# [30] = tested on: Los Angeles/2/87 (H3N2); type: cell-based, influenza A
# [31] = biological target: gp160 (Human immunodeficiency virus type 1 group M subtype B, UniProt P03375); details: 100 ng protein standard, Griffithsin 100 ng/well; FIG. 5a
# [32] = tested on: Texas/36/91 (H1N1); type: cell-based, influenza A
# [33] = tested on: bovine IgG, α-acid glycoprotein, and aprotinin; type: binding
# [34] = biological target: sgp120 binding of CD4 on CEM-SS cells (Human immunodeficiency virus type 1 group M subtype B, UniProt P03375); details: pretreatment of sgp120 with Griffithsin, Leu3a epitope availability
# [35] = tested on: SARS virus; remark: listed apart in the source
# [36] = Canis lupus familiaris, MDCK, 72 h
molecule,measurement,setting,value
"NC(=O)c1ncn([C@@H]2O[C@H](CO)[C@@H](O)[C@H]2O)n1 [Ribavirin, reference compound]",IC50,[1]; [36],> 100 µg/mL
same,IC50,[2]; [36],> 100 µg/mL
Cyanovirin-N [reference compound],recognition of sgp120 by Griffithsin,[3]; effect of cyanovirin-N,interfered strongly
Griffithsin,toxicity to the MDCK cell line,[4],not found to be toxic
same,fusion of CD4 β-gal cells with HL 2/3 cells,[5],inhibited
same,infectivity of cell-free virus,[6]; after pretreatment of virus and removal of Griffithsin,abolished
same,susceptibility of pretreated uninfected CEM-SS cells to HIV infection,[6]; after the removal of Griffithsin,retained normal susceptibility
same,IC50,[1],>10 µg/mL
same,EC50,[7],0.016 µg/mL
same,EC50,[8],0.018 µg/mL
same,EC50,[9],0.07 µg/mL
same,EC90,[10],5 µg/mL
same,"anti-HIV activity, EC50","[11]; CEM-SS cells infected with HIV-1, FIG. 4",low nanomolar range
same,inhibition of virus-induced cell killing,[11]; HIV-1RF in CEM-SS cells,concentration-dependent inhibition
same,"supernatant reverse transcriptase and viral core antigen, p24",[11]; HIV-1RF in CEM-SS cells,concomitant decreases
same,pEC50,"[11]; HIV-1 laboratory strain RF, CEM-SS, T-tropic, XTT-tetrazolium, mean value",10.37
same,pEC50,[12],9.30
same,subsequent binding of cyanovirin-N to sgp120,[3]; Griffithsin pretreatment of sgp120,did not block
same,"recognition of sgp120 by mAbs that recognize the C1 region (or V3 loop), and the mAb 17b",[3]; effect of Griffithsin,little or no effect
same,recognition of sgp120 by the mAbs 48d and 2G12,[3]; effect of Griffithsin,interfered strongly
same,sCD4 and mAb IgG 1b12 binding to sgp120,[3]; effect of Griffithsin,moderately interfered
same,subsequent binding of Griffithsin to sgp120,"[3]; sgp120 pretreated with sCD4 and the mAbs IgG1b12, 48d, and 2G12",did not block
same,EC50 (anti-HCV),[13],7.17 µg/mL
same,Inhibition of Viral Activity (% reduction Luc),[13],60%
same,binding of Griffithsin to sgp120,[14],both concentration-dependent and glycosylation-dependent
same,"interaction with gp120 (ELISA, absorbance at 405 nm)",[15],direct interaction
same,pEC50,[16],9.20
same,cell-free HIV-1IIIB fusion and infection of β-gal cells,[17],inhibited
same,EC50,[18],0.006 µg/mL
same,pEC50,[19],10.01
same,inhibition of cell-cell fusion,[20],concentration-dependent inhibition
same,toxicity level (cytotoxicity),"[21]; highest test concentration of 10 μg/ml, FIG. 7",never reached a toxicity level
same,overall reduction in cell growth,"[21]; single high-test concentration of 20 μM, 72 hr",25%
same,Cytotoxicity (% reduction in rRNA)*,[21]; 72 hr,74.5%
same,direct cytotoxicity to the host cells,[22]; highest tested concentrations,no significant evidence of direct cytotoxicity
same,direct cytotoxicity to the uninfected control cells,[22]; highest tested concentrations of Griffithsin (78.3 to 783 nM),little or no evidence of direct cytotoxicity
same,EC50,[23],0.016 µg/mL
same,IC50,[24],>100 µg/mL
same,IC50 in each assay,[24],greater than 100 μg/ml
same,interaction with cCD4 (ELISA),[25],little or no detectable interaction
same,anti-ebola virus activity,[26],low μg/ml range
same,IC50,[27],>100 µg/mL
same,EC50,[28],4 µg/mL and 2 µg/mL
same,average EC50,[28],3 µg/mL
same,toxicity against any of the cell lines,[29],did not show any toxicity
same,EC50,[30],0.037 µg/mL
same,interaction with gp160 (ELISA),[31],direct interaction
same,EC50,[32],0.06 µg/mL
same,interaction with other reference proteins (ELISA),[33],little or no detectable interaction
same,CD4-dependent sgp120 binding,[34],completely blocked
same,EC50,[35],14 µg/mL
same,IC50,[2],>10 µg/mL
IFN-α [reference compound],Inhibition of Viral Activity (% reduction Luc),[13],98.6%
same,Cytotoxicity (% reduction in rRNA)*,[21]; 72 hr,98.4%
